# In patent US20150337013A1, “NOVEL ANTIBACTERIAL AGENTS FOR THE TREATMENT OF GRAM POSITIVE INFECTIONS” (priority 2008, published 2015):
# Read-outs that look alike come from different tables or passages of the source.
# Columns and labels:
# [1] = tested on: Clostridium difficile
# [2] = tested on: Enterococcus faecalis EFS.312, Daptomycin resistant mutant (EFA); assay type: cell-based; settings: MHBc with 50 mg/L calcium, 18-20 hours at 37° C.
# Outline: (§1)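 Broth microdilution per CLSI M7-A7 in Mueller Hinton broth supplemented with 50 mg/L calcium; 2-fold compound dilutions, 5×10^5 bacteria per well, DMSO ≤1% final, 18-20 h at 37° C with aeration (200 rpm). MIC (μg/mL) = lowest concentration with no visible turbidity (growth: visible turbidity or OD600 ≥0.1).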
# [3] = tested on: Enterococcus faecalis EFS.201 (ATCC 49452); assay type: cell-based
# Outline: as §1
# [4] = tested on: Staphylococcus aureus SAU.399 (ATCC 43300), Methicillin and Oxacillin Resistant; assay type: cell-based
# Outline: as §1
# [5] = tested on: Enterococcus faecium EFM.384, Daptomycin resistant mutant (14-A); assay type: cell-based; settings: MHBc with 50 mg/L calcium, 18-20 hours at 37° C.
# Outline: as §1
# [6] = tested on: Enterococcus faecium EFM.14 (ATCC 6569); assay type: cell-based
# Outline: as §1
# [7] = tested on: Staphylococcus aureus SAU.278, Daptomycin resistant mutant (D10); assay type: cell-based; settings: MHBc with 50 mg/L calcium, 18-20 hours at 37° C.
# Outline: as §1
# [8] = tested on: Staphylococcus aureus SAU.42 (ATCC 29213); assay type: cell-based
# Outline: as §1
# [9] = MHBc with 50 mg/L calcium, 18-20 hours at 37° C.
Structure (SMILES),C. diff MIC90 [1] [µg/mL],Efs312 MIC [2] [µg/mL],Efs201 MIC ([3]; ATCC 49452) [µg/mL],Sa399 MIC ([4]; ATCC 43300) [µg/mL],Efm384 MIC [5] [µg/mL],Efm14 MIC ([6]; ATCC 6569) [µg/mL],Sa278 MIC [7] [µg/mL],Sa42 MIC ([8]; ATCC 29213) [µg/mL],"Efs201 MIC [3, 9] [µg/mL]","Sa399 MIC [4, 9] [µg/mL]","Efm14 MIC [6, 9] [µg/mL]","Sa42 MIC [8, 9] [µg/mL]"
C[C@H](CC(=O)O)[C@@H]1NC(=O)[C@@H](CO)NC(=O)CNC(=O)[C@H](CC(=O)O)NC(=O)[C@@H](C)NC(=O)[C@H](CC(=O)O)NC(=O)[C@H](CCCN)NC(=O)CNC(=O)[C@@H](NC(=O)[C@H](CC(=O)O)NC(=O)[C@@H](CC(N)=O)NC(=O)[C@H](Cc2c[nH]c3ccccc23)NC(=O)C2(c3ccc(Cl)cc3)CCCCC2)[C@@H](C)OC(=O)[C@H](CC(=O)c2ccccc2N)NC1=O [Compound 72],32,>32,>32,>32,>32,>32,>32,>32,–,–,–,–
CCCCCOc1ccc(/C=C/C(=O)N[C@@H](Cc2c[nH]c3ccccc23)C(=O)N[C@H](CC(N)=O)C(=O)N[C@@H](CC(=O)O)C(=O)N[C@@H]2C(=O)NCC(=O)N[C@@H](CCCN)C(=O)N[C@@H](CC(=O)O)C(=O)N[C@H](C)C(=O)N[C@@H](CC(=O)O)C(=O)NCC(=O)N[C@H](CO)C(=O)N[C@@H]([C@H](C)CC(=O)O)C(=O)N[C@@H](CC(=O)c3ccccc3N)C(=O)O[C@@H]2C)cc1 [Compound 41],4,>32,–,–,>32,–,2,–,4,2,8,4
C[C@H](CC(=O)O)[C@@H]1NC(=O)[C@@H](CO)NC(=O)CNC(=O)[C@H](CC(=O)O)NC(=O)[C@@H](C)NC(=O)[C@H](CC(=O)O)NC(=O)[C@H](CCCN)NC(=O)CNC(=O)[C@@H](NC(=O)[C@H](CC(=O)O)NC(=O)[C@@H](CC(N)=O)NC(=O)[C@H](Cc2c[nH]c3ccccc23)NC(=O)C2CCC(c3ccc(Cl)cc3)CC2)[C@@H](C)OC(=O)[C@H](CC(=O)c2ccccc2N)NC1=O (stereo partly shown) [Compound 67],4,>32,4,4,>32,8,4,0.5,–,–,–,–
CCCCc1ccc(CC(=O)N[C@@H](Cc2c[nH]c3ccccc23)C(=O)N[C@H](CC(N)=O)C(=O)N[C@@H](CC(=O)O)C(=O)N[C@@H]2C(=O)NCC(=O)N[C@@H](CCCN)C(=O)N[C@@H](CC(=O)O)C(=O)N[C@H](C)C(=O)N[C@@H](CC(=O)O)C(=O)NCC(=O)N[C@H](CO)C(=O)N[C@@H]([C@H](C)CC(=O)O)C(=O)N[C@@H](CC(=O)c3ccccc3N)C(=O)O[C@@H]2C)cc1 [Compound 44],8.00,>32,8,4,>32,16,4,4,–,–,–,–
CCCCCCCCOc1ccc(C(=O)N[C@@H](Cc2c[nH]c3ccccc23)C(=O)N[C@H](CC(N)=O)C(=O)N[C@@H](CC(=O)O)C(=O)N[C@@H]2C(=O)NCC(=O)N[C@@H](CCCN)C(=O)N[C@@H](CC(=O)O)C(=O)N[C@H](C)C(=O)N[C@@H](CC(=O)O)C(=O)NCC(=O)N[C@H](CO)C(=O)N[C@@H]([C@H](C)CC(=O)O)C(=O)N[C@@H](CC(=O)c3ccccc3N)C(=O)O[C@@H]2C)cc1 [Compound 36],0.5,4,–,–,4,–,1.00,–,0.5,0.25,0.5,0.25
"CCCCCCCCCC(C)NC(=O)N[C@@H](Cc1c[nH]c2ccccc12)C(=O)N[C@H](CC(N)=O)C(=O)N[C@@H](CC(=O)O)C(=O)N[C@@H]1C(=O)NCC(=O)N[C@@H](CCCN)C(=O)N[C@@H](CC(=O)O)C(=O)N[C@H](C)C(=O)N[C@@H](CC(=O)O)C(=O)NCC(=O)N[C@H](CO)C(=O)N[C@@H]([C@H](C)CC(=O)O)C(=O)N[C@@H](CC(=O)c2ccccc2N)C(=O)O[C@@H]1C (single isomer, unassigned) [14 isomer II]",2,16,0.5,0.25,8,0.25,1,0.25,–,–,–,–
CCCCCCC12CCC(C(=O)N[C@@H](Cc3c[nH]c4ccccc34)C(=O)N[C@H](CC(N)=O)C(=O)N[C@@H](CC(=O)O)C(=O)N[C@@H]3C(=O)NCC(=O)N[C@@H](CCCN)C(=O)N[C@@H](CC(=O)O)C(=O)N[C@H](C)C(=O)N[C@@H](CC(=O)O)C(=O)NCC(=O)N[C@H](CO)C(=O)N[C@@H]([C@H](C)CC(=O)O)C(=O)N[C@@H](CC(=O)c4ccccc4N)C(=O)O[C@@H]3C)(CC1)CC2 [Compound 23],0.5,4,0.5,0.5,4,0.5,1,0.50,–,–,–,–
CCCCCCCCCCCCCC(=O)N[C@@H](Cc1c[nH]c2ccccc12)C(=O)N[C@H](CC(N)=O)C(=O)N[C@@H](CC(=O)O)C(=O)N[C@@H]1C(=O)NCC(=O)N[C@@H](CCCN)C(=O)N[C@@H](CC(=O)O)C(=O)N[C@H](C)C(=O)N[C@@H](CC(=O)O)C(=O)NCC(=O)N[C@H](CO)C(=O)N[C@@H]([C@H](C)CC(=O)O)C(=O)N[C@@H](CC(=O)c2ccccc2N)C(=O)O[C@@H]1C [Compound 6],16,4,0.25,0.25,4,0.5,2,1,–,–,–,–
C[C@H](CC(=O)O)[C@@H]1NC(=O)[C@@H](CO)NC(=O)CNC(=O)[C@H](CC(=O)O)NC(=O)[C@@H](C)NC(=O)[C@H](CC(=O)O)NC(=O)[C@H](CCCN)NC(=O)CNC(=O)[C@@H](NC(=O)[C@H](CC(=O)O)NC(=O)[C@@H](CC(N)=O)NC(=O)[C@H](Cc2c[nH]c3ccccc23)NC(=O)/C=C/c2ccc(-c3ccccc3)cc2)[C@@H](C)OC(=O)[C@H](CC(=O)c2ccccc2N)NC1=O [Compound 71],16,>32,–,–,>32,–,32,–,8,2,16,2
CCCCCCCCCCCCCCC(=O)N[C@@H](Cc1c[nH]c2ccccc12)C(=O)N[C@H](CC(N)=O)C(=O)N[C@@H](CC(=O)O)C(=O)N[C@@H]1C(=O)NCC(=O)N[C@@H](CCCN)C(=O)N[C@@H](CC(=O)O)C(=O)N[C@H](C)C(=O)N[C@@H](CC(=O)O)C(=O)NCC(=O)N[C@H](CO)C(=O)N[C@@H]([C@H](C)CC(=O)O)C(=O)N[C@@H](CC(=O)c2ccccc2N)C(=O)O[C@@H]1C [Compound 7],16,4,0.25,0.5,4,0.5,2,1,–,–,–,–
C[C@H](CC(=O)O)[C@@H]1NC(=O)[C@@H](CO)NC(=O)CNC(=O)[C@H](CC(=O)O)NC(=O)[C@@H](C)NC(=O)[C@H](CC(=O)O)NC(=O)[C@H](CCCN)NC(=O)CNC(=O)[C@@H](NC(=O)[C@H](CC(=O)O)NC(=O)[C@@H](CC(N)=O)NC(=O)[C@H](Cc2c[nH]c3ccccc23)NC(=O)Cc2ccc(-c3ccccc3)cc2)[C@@H](C)OC(=O)[C@H](CC(=O)c2ccccc2N)NC1=O [Compound 66],8,>32,–,–,>32,–,>32,–,>32,8,>32,8
CCCCCCCc1ccc(NC(=O)N[C@@H](Cc2c[nH]c3ccccc23)C(=O)N[C@H](CC(N)=O)C(=O)N[C@@H](CC(=O)O)C(=O)N[C@@H]2C(=O)NCC(=O)N[C@@H](CCCN)C(=O)N[C@@H](CC(=O)O)C(=O)N[C@H](C)C(=O)N[C@@H](CC(=O)O)C(=O)NCC(=O)N[C@H](CO)C(=O)N[C@@H]([C@H](C)CC(=O)O)C(=O)N[C@@H](CC(=O)c3ccccc3N)C(=O)O[C@@H]2C)cc1 [Compound 51],0.5,8,0.25,0.125,4,0.5,1,0.125,–,–,–,–
CCCCCCOc1ccc(/C=C/C(=O)N[C@@H](Cc2c[nH]c3ccccc23)C(=O)N[C@H](CC(N)=O)C(=O)N[C@@H](CC(=O)O)C(=O)N[C@@H]2C(=O)NCC(=O)N[C@@H](CCCN)C(=O)N[C@@H](CC(=O)O)C(=O)N[C@H](C)C(=O)N[C@@H](CC(=O)O)C(=O)NCC(=O)N[C@H](CO)C(=O)N[C@@H]([C@H](C)CC(=O)O)C(=O)N[C@@H](CC(=O)c3ccccc3N)C(=O)O[C@@H]2C)cc1 [Compound 42],0.5,–,–,–,8,–,4,–,1,1,2,0.5
